Source: patent US11382848B2, “Compounds reducing malodour perception and the use thereof” (CHEMCOM S.A., priority 2017, dated 2022)

Legend:
[1] = target: T1, human olfactory receptor OR7D4 (Homo sapiens, UniProt Q8NG98); assay: OR7D4 luciferase gene reporter assay (antagonism of agonist-induced activation); type: cell-based
T1 construct: transfected with a plasmid containing CRE-luciferase and a plasmid containing OR7D4; expressed in transfected cells; host or cells: HEK293T stably expressing olfactory chaperone proteins of the RTP family
T1 sequence (Q8NG98 1-312): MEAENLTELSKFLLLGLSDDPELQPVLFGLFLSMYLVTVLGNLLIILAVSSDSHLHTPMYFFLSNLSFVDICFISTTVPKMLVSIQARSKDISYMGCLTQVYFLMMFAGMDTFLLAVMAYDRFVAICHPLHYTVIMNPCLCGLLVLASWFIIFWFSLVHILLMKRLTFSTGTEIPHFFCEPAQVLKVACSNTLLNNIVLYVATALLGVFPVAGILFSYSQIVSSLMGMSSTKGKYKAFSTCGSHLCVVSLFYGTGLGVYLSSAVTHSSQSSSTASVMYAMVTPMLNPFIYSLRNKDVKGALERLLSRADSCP
Description: Cells were maintained in minimal essential medium (EMEM, Lonza) containing 10% fetal bovine serum (M10). HEK293T stably expressing olfactory chaperone proteins from the RTP family as described in WO 2006/002161 (introduced here as a reference) were generated by transfecting HEK293T cells with expression vector containing the chaperone gene sequences and a resistance gene to puromycin, using Lipofectamine 2000. A recombinant cell population was selected by adding 10 μg/ml of puromycin into the culture medium. Monoclonal populations were further obtained by limit dilution procedure. Briefly, a cell suspension was diluted to contain 1 cell per ml and this dilution was dispatched in poly-D-lysine-coated 96 well plates (200 μl of dilution per well). After 5 days of culture, the presence and number of cell colonies per well was checked under a phase contrast microscope. After 5 additional days of culture, wells containing a single colony were harvested and each collected population was amplified independently.
The 5-alpha-androst-16-ene-3-one, used as an agonist of the human olfactory receptor OR7D4 and the tested molecules were diluted at a concentration of 1 mole/litre (M) into dimethyl sulfoxide (DMSO) to generate stock solutions.
For concentration-response analysis, serial dilutions of the tested molecules were prepared from stock solutions in EMEM plated into 96-well plates.
(§1) Briefly, cells were plated on poly-D-lysine-coated 96-well plates (BD Bioscience, Erembodegem-Dorp, Belgium) and transfected with a plasmid containing CRE-luciferase and a plasmid containing OR7D4. Sixteen hours after transfection, the culture medium was replaced by serum-free EMEM containing the tested ligands at a determined concentration. After four hours of incubation at 37° C. degree, cells were lysed and processed for luminescence measurement according to the manufacturer's protocols. Luminescence emission was recorded on a Spectra Max M5 reader (Molecular Devices, Sunnyvale, Calif.). Results were expressed as percentage of the response induced by 10 μM of the adenylate cyclase activator Forskolin.
The ability of the compounds of the invention to inhibit the activity of androstenone on OR7D4 receptor was assessed by the luciferase assay described above.
To determine whether a molecule antagonizes OR7D4, this compound was introduced in the incubation medium of the Luciferase assay described above at a concentration of either 316 μM, 100 μM or 31.6 μM, along with the known activator of the receptor 5α-androst-16-en-3-one at a concentration of 31.6 μM. Molecules were considered as “hits” i.e., as having an antagonist effect on the receptor, if they induced a decrease of at least 50% of the luciferase production elicited upon activation of OR7D4 by 5α-androst-16-en-3-one.
Putative antagonist molecule libraries containing compound 1 and other types of molecules were used to identify antagonist of the receptor OR7D4. The screening campaign was performed on the OR7D4 with a series of 112 putative antagonist molecules. In this screening campaign, compound 1 was identified as a hit.
The compound 1 was further confirmed as antagonist of OR7D4 by performing dose-response analysis using the luciferase assay. Different concentrations of compound 1, ranging from 31.6 nM to 1 mM were tested on HEK293 cell expressing OR7D4 and stimulated with 31.6 μM of 5α-androst-16-en-3-one.
The antagonistic property of compound 1 on OR7D4 was further confirmed by measuring the response of the OR7D4 to 5α-androsta-4,16-dien-3-one in presence of compound 1, using the luciferase assay as describe hereinabove. The observed inhibition was in the same range as the one observed when stimulating the receptor with 5α-androst-16-en-3-one.
To further explore the antagonism on OR7D4, a series of compounds structurally related to compound 1 were synthesized and assessed as antagonists of OR7D4 by dose-response analysis using the luciferase assay. […]

[2] = tested on: perception of androstenone; assay: Alternative sensory test with Tedlar bags and expert panel
Description: The test consists, in a first step, in microinjecting androstenone (at 0.6% in ethanol), compound 1 (pure) or androstenone+compound 1 in 10 L Tedlar™ bags specially conceived for gas sampling, previously loaded with a known volume of pure air (from oil free compressor with additional charcoal filters). Than the compound of interest (EtOH solution) is injected with a high accuracy micro-syringe through a septum placed on the tap-valve.
The odour presentation device consists of a cylinder to be filled with clean air. The bag is inserted in the cylinder and connected to a sampling installation in the cylinder by means of a valve. By controlled injection of clean air into the cylinder, the interior pressure is raised and the sampling air is pressed in a controlled manner out of the sample container through the opened valve. This sampling air is transferred to the nose of the corresponding sensory odour panel member by means of a funnel. By this means, each sensory odour panel member receives an identical sample with a standardized volume flow and a constant provision time. The outlet flow rate is between 10-20 L/min (in order to avoid any mixing with ambient air before reaching the nose).
The expert panel is entering the room 15 minutes before starting the test. The basic standard test is a rating in intensity and the use of the closest chemical descriptors according to the following order of presentation:
Each assessor can smell for few seconds. A pause of min. 1 minute is considered between presentations.
The individual rating is done with a resolution of 0.5 on a scale ranging from 0 (no odour) to 5 (saturating odour).

[3] = tested on: forskolin-induced, receptor-independent production of cAMP / Luciferase; assay: Forskolin control in cells not expressing the receptor (luciferase assay); type: cell-based; settings: cells that did not express the receptor, stimulated by forskolin
Description: as §1

Luciferase activity elicited by 5α-androst-16-en-3-one, dose-response (FIG. 1) ([1]; 31.6 nM to 1 mM compound, HEK293 cell expressing OR7D4 stimulated with 31.6 μM 5α-androst-16-en-3-one): decrease of Luciferase activity
hit in antagonist screening (decrease of at least 50% of the luciferase production) ([1]; compound at 316 μM, 100 μM or 31.6 μM with 5α-androst-16-en-3-one at 31.6 μM, 112 putative antagonist molecules screened): hit
IC50 ([1]; dose-response, luciferase assay, half decrease of the luciferase production obtained without antagonist, androstenone at 31.6 micromolar): 2000 nM
IC50 ([1]; response of OR7D4 to 5α-androsta-4,16-dien-3-one in presence of compound): 2500 nM
SMILES: CCCCCCC(=C\c1ccccc1)/C=C(\C)C(=O)OCC [Compound 1, ethyl (E)-4-((E)-benzylidene)-2-methyldec-2-enoate]
typical odour of sweat of Androstenone when smelled in the presence of the compound ([2]; Androstenone + compound 1): completely disappears
intrinsic smell ([2]; compound 1 alone): mushroom
odour intensity ([2]; compound 1 alone compared with androstenone alone): lower than the one of androstenone alone
forskolin-induced production of Luciferase [3]: not affected
